{
  "source": "paper PMC11842588",
  "about": "“A first-in-class selective inhibitor of ERK1/2 and ERK5 overcomes drug resistance with a single-molecule strategy” (Signal Transduction and Targeted Therapy, 2025)",
  "experiment_in_all_cases": "Kinase profiling",
  "format_in_all_cases": "biochemical",
  "key": {"CaMKIIδ(h)": {"biological_target": "T1, CaMKIIδ(h) (Homo sapiens, UniProt Q13557)", "T1 construct": "purchased Eurofins Cerep SA (KinaseProfiler)", "T1 sequence (Q13557 whole entry)": "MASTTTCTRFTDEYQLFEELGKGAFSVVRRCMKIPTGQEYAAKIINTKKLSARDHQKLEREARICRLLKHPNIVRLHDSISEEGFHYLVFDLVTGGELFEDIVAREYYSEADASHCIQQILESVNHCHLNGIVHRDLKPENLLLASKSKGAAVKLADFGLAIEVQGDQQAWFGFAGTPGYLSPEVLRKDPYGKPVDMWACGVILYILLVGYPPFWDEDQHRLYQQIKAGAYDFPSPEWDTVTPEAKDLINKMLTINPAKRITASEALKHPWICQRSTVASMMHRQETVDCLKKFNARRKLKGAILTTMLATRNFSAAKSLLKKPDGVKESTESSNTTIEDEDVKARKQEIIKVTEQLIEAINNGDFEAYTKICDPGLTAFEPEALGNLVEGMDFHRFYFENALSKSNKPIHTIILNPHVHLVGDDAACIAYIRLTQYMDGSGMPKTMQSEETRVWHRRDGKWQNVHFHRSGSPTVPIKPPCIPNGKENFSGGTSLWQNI", "method": "(§1) 380 kinases inhibitory activities of SKLB-D18 were conducted by Eurofins Cerep SA. The result was illustrated by kinase tree (http://www.kinhub.org/kinmap/)."}, "FGFR3(h)": {"biological_target": "T2, FGFR3(h) (Homo sapiens, UniProt P22607)", "T2 construct": "purchased Eurofins Cerep SA (KinaseProfiler)", "method": "as §1"}, "TYK2(h)": {"biological_target": "T3, TYK2(h) (Homo sapiens, UniProt P29597)", "T3 construct": "purchased Eurofins Cerep SA (KinaseProfiler)", "method": "as §1"}, "PKCβII(h)": {"biological_target": "T4, PKCβII(h) (Homo sapiens, UniProt P05771)", "T4 construct": "purchased Eurofins Cerep SA (KinaseProfiler)", "T4 sequence (P05771 1-673 isoform P05771-2)": "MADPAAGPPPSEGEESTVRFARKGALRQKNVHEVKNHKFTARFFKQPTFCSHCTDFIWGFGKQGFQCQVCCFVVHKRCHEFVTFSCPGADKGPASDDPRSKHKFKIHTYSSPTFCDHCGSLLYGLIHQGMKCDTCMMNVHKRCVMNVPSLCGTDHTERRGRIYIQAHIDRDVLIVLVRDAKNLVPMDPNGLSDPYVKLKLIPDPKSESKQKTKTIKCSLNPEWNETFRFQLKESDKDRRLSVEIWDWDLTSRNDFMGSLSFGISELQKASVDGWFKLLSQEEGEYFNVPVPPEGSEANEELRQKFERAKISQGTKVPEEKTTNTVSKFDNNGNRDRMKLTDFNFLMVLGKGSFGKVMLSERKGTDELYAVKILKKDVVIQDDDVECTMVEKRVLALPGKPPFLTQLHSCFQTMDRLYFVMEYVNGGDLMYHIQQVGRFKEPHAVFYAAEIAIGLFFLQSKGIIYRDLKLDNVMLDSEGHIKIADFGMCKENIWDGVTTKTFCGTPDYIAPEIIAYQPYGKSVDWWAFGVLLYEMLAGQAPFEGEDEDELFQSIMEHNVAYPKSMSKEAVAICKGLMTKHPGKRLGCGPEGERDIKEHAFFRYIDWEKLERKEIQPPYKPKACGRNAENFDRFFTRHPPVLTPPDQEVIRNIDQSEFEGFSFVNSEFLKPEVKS", "method": "as §1"}, "Aurora-A(h)": {"biological_target": "T5, Aurora-A(h) (Homo sapiens, UniProt O14965)", "T5 construct": "purchased Eurofins Cerep SA (KinaseProfiler)", "method": "as §1"}, "NUAK2(h)": {"biological_target": "T6, NUAK2(h) (Homo sapiens, UniProt Q9H093)", "T6 construct": "purchased Eurofins Cerep SA (KinaseProfiler)", "method": "as §1"}, "DYRK1A(h)": {"biological_target": "T7, DYRK1A(h) (Homo sapiens, UniProt Q13627)", "T7 construct": "purchased Eurofins Cerep SA (KinaseProfiler)", "method": "as §1"}, "GSK3α(h)": {"biological_target": "T8, GSK3α(h) (Homo sapiens, UniProt P49840)", "T8 construct": "purchased Eurofins Cerep SA (KinaseProfiler)", "method": "as §1"}, "Fer(h)": {"biological_target": "T9, Fer(h) (Homo sapiens, UniProt P16591)", "T9 construct": "purchased Eurofins Cerep SA (KinaseProfiler)", "method": "as §1"}, "ZIPK(h)": {"biological_target": "T10, ZIPK(h) (Homo sapiens, UniProt O43293)", "T10 construct": "purchased Eurofins Cerep SA (KinaseProfiler)", "method": "as §1"}, "DDR2(h)": {"biological_target": "T11, DDR2(h) (Homo sapiens, UniProt Q16832)", "T11 construct": "purchased Eurofins Cerep SA (KinaseProfiler)", "T11 sequence (Q16832 22-855)": "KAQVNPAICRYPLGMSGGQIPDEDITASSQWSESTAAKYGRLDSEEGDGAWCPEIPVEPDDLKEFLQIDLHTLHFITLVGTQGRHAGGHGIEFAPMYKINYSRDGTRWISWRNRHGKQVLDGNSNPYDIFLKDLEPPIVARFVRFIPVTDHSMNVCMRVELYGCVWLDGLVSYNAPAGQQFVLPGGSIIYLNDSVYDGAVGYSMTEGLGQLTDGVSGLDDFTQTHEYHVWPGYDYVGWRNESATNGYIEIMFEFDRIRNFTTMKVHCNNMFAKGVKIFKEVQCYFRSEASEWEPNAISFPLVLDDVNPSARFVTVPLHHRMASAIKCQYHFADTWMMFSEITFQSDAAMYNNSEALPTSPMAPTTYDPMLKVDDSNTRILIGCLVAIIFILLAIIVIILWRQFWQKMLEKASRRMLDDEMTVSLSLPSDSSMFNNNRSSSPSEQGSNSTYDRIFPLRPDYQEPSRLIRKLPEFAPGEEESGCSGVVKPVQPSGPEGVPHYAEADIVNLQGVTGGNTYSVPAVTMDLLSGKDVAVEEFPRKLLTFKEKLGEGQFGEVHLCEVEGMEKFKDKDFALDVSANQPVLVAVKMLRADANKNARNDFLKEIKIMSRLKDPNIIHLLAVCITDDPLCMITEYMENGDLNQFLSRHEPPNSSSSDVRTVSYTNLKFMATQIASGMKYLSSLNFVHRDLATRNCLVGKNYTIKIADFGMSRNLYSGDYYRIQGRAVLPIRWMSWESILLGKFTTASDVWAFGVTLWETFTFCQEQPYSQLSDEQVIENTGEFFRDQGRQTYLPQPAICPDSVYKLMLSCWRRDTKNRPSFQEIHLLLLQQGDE", "method": "as §1"}, "CaMKIIα(h)": {"biological_target": "T12, CaMKIIα(h) (Homo sapiens, UniProt Q9UQM7)", "T12 construct": "purchased Eurofins Cerep SA (KinaseProfiler)", "method": "as §1"}, "CaMKIβ(h)": {"biological_target": "T13, CaMKIβ(h) (Homo sapiens, UniProt Q6P2M8)", "T13 construct": "purchased Eurofins Cerep SA (KinaseProfiler)", "method": "as §1"}, "TLK2(h)": {"biological_target": "T14, TLK2(h) (Homo sapiens, UniProt Q86UE8)", "T14 construct": "purchased Eurofins Cerep SA (KinaseProfiler)", "method": "as §1"}, "LTK(h)": {"biological_target": "T15, LTK(h) (Homo sapiens, UniProt P29376)", "T15 construct": "purchased Eurofins Cerep SA (KinaseProfiler)", "method": "as §1"}, "MST3(h)": {"biological_target": "T16, MST3(h) (Homo sapiens, UniProt Q9Y6E0)", "T16 construct": "purchased Eurofins Cerep SA (KinaseProfiler)", "T16 sequence (Q9Y6E0 whole entry)": "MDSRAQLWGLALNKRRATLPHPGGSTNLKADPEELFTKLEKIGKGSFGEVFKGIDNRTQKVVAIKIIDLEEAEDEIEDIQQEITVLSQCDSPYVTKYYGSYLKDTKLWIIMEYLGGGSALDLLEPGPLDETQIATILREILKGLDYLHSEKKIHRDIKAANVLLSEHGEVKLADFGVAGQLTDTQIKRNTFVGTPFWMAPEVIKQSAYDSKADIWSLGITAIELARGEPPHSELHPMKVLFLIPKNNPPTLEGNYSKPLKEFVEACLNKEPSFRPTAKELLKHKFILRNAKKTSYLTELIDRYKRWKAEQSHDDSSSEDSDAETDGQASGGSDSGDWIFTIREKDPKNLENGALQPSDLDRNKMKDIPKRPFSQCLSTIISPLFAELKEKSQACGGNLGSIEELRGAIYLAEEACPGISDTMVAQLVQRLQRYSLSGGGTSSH", "method": "as §1"}, "HRI(h)": {"biological_target": "T17, HRI(h) (Homo sapiens, UniProt Q9BQI3)", "T17 construct": "purchased Eurofins Cerep SA (KinaseProfiler)", "method": "as §1"}, "Ret(h)": {"biological_target": "T18, Ret(h) (Homo sapiens, UniProt P07949)", "T18 construct": "purchased Eurofins Cerep SA (KinaseProfiler)", "method": "as §1"}, "FAK(h)": {"biological_target": "T19, FAK(h) (Homo sapiens, UniProt Q05397)", "T19 construct": "purchased Eurofins Cerep SA (KinaseProfiler)", "method": "as §1"}, "PTK5(h)": {"biological_target": "T20, PTK5(h) (Homo sapiens, UniProt P42685)", "T20 construct": "purchased Eurofins Cerep SA (KinaseProfiler)", "method": "as §1"}, "ALK6(h)": {"biological_target": "T21, ALK6(h) (Homo sapiens, UniProt O00238)", "T21 construct": "purchased Eurofins Cerep SA (KinaseProfiler)", "method": "as §1"}, "GRK5(h)": {"biological_target": "T22, GRK5(h) (Homo sapiens, UniProt P34947)", "T22 construct": "purchased Eurofins Cerep SA (KinaseProfiler)", "method": "as §1"}, "Bmx(h)": {"biological_target": "T23, Bmx(h) (Homo sapiens, UniProt P51813)", "T23 construct": "purchased Eurofins Cerep SA (KinaseProfiler)", "T23 sequence (P51813 whole entry)": "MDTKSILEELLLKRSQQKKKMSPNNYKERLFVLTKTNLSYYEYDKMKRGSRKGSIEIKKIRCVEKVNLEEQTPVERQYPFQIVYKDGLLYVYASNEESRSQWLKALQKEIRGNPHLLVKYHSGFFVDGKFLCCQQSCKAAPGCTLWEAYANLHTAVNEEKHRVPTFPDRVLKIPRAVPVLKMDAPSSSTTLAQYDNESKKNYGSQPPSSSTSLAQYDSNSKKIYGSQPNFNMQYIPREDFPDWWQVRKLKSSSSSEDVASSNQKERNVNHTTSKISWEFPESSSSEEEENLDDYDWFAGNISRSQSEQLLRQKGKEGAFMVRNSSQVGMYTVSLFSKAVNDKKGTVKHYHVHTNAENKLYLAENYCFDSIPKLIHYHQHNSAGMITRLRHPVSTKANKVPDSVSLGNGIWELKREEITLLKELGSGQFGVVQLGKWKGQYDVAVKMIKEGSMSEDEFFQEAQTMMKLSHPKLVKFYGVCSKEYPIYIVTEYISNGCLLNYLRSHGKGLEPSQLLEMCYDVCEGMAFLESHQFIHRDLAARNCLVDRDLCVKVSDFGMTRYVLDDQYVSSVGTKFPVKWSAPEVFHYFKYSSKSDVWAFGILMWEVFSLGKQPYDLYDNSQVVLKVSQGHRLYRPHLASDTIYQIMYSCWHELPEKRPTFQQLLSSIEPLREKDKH", "method": "as §1"}, "PKD3(h)": {"biological_target": "T24, PKD3(h) (Homo sapiens, UniProt O94806)", "T24 construct": "purchased Eurofins Cerep SA (KinaseProfiler)", "method": "as §1"}, "Tec(h) activated": {"biological_target": "T25, Tec(h) activated (Homo sapiens, UniProt P42680)", "T25 construct": "purchased Eurofins Cerep SA (KinaseProfiler)", "method": "as §1"}, "Axl(h)": {"biological_target": "T26, Axl(h) (Homo sapiens, UniProt P30530)", "T26 construct": "purchased Eurofins Cerep SA (KinaseProfiler)", "method": "as §1"}, "MST1(h)": {"biological_target": "T27, MST1(h) (Homo sapiens, UniProt Q13043)", "T27 construct": "purchased Eurofins Cerep SA (KinaseProfiler)", "method": "as §1"}, "ALK4(h)": {"biological_target": "T28, ALK4(h) (Homo sapiens, UniProt P36896)", "T28 construct": "purchased Eurofins Cerep SA (KinaseProfiler)", "T28 sequence (P36896 24-505)": "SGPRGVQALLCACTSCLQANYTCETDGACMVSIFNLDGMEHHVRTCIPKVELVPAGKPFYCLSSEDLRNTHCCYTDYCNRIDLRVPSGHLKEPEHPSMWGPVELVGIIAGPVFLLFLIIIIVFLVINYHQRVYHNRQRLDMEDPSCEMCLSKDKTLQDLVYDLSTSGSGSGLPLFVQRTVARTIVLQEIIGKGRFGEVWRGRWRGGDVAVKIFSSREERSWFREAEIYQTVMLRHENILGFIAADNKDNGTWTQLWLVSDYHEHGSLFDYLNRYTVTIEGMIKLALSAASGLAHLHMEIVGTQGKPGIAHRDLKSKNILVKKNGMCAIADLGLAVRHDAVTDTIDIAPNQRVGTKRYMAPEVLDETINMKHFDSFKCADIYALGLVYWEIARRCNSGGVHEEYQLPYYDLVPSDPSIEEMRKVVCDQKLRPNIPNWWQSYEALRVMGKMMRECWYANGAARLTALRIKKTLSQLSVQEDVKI", "method": "as §1"}, "Pyk2(h)": {"biological_target": "T29, Pyk2(h) (Homo sapiens, UniProt Q14289)", "T29 construct": "purchased Eurofins Cerep SA (KinaseProfiler)", "method": "as §1"}, "BMPR2(h)": {"biological_target": "T30, BMPR2(h) (Homo sapiens, UniProt Q13873)", "T30 construct": "purchased Eurofins Cerep SA (KinaseProfiler)", "method": "as §1"}, "TAO3(h)": {"biological_target": "T31, TAO3(h) (Homo sapiens, UniProt Q9H2K8)", "T31 construct": "purchased Eurofins Cerep SA (KinaseProfiler)", "method": "as §1"}, "ULK1(h)": {"biological_target": "T32, ULK1(h) (Homo sapiens, UniProt O75385)", "T32 construct": "purchased Eurofins Cerep SA (KinaseProfiler)", "method": "as §1"}, "MOK(h)": {"biological_target": "T33, MOK(h) (Homo sapiens, UniProt Q9UQ07)", "T33 construct": "purchased Eurofins Cerep SA (KinaseProfiler)", "T33 sequence (Q9UQ07 whole entry)": "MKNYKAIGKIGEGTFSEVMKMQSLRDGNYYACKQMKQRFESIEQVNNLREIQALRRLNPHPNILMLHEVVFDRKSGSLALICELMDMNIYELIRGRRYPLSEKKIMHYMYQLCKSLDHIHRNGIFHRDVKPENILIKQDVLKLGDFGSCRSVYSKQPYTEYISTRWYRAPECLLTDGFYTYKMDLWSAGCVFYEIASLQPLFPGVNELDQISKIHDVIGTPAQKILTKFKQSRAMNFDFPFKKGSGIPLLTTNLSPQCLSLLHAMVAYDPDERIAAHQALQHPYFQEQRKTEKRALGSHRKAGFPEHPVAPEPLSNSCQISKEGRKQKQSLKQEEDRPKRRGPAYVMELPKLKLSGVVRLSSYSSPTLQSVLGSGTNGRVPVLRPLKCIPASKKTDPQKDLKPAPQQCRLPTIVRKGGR", "method": "as §1"}, "CHK2(h)": {"biological_target": "T34, CHK2(h) (Homo sapiens, UniProt O96017)", "T34 construct": "purchased Eurofins Cerep SA (KinaseProfiler)", "method": "as §1"}, "Aurora-C(h)": {"biological_target": "T35, Aurora-C(h) (Homo sapiens, UniProt Q9UQB9)", "T35 construct": "purchased Eurofins Cerep SA (KinaseProfiler)", "method": "as §1"}, "DCAMKL3(h)": {"biological_target": "T36, DCAMKL3(h) (Homo sapiens, UniProt Q9C098)", "T36 construct": "purchased Eurofins Cerep SA (KinaseProfiler)", "method": "as §1"}, "PRK2(h)": {"biological_target": "T37, PRK2(h) (Homo sapiens, UniProt Q16513)", "T37 construct": "purchased Eurofins Cerep SA (KinaseProfiler)", "T37 sequence (Q16513 whole entry)": "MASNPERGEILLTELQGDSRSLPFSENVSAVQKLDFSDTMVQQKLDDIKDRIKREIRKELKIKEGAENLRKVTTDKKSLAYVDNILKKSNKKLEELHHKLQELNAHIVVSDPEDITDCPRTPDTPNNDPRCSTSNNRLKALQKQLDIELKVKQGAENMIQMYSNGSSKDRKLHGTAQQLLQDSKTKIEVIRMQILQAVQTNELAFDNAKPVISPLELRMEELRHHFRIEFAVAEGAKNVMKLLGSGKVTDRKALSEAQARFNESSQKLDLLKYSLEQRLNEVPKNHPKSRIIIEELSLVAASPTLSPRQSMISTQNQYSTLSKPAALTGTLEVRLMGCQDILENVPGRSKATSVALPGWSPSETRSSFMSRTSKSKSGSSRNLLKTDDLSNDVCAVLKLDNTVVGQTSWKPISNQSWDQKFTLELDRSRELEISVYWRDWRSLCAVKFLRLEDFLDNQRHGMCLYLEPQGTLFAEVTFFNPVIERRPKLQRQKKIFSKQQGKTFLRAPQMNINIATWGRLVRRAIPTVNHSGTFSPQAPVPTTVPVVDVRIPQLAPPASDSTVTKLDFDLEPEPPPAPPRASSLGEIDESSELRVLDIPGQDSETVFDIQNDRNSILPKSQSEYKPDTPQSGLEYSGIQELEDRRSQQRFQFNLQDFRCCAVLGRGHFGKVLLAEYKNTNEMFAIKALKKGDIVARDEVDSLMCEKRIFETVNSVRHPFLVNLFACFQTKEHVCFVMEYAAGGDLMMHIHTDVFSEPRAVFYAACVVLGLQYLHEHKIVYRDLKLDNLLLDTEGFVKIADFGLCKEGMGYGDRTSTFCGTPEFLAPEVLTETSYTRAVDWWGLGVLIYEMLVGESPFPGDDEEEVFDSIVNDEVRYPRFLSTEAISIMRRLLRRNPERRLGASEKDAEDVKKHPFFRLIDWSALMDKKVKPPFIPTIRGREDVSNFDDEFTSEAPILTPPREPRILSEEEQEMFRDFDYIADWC", "method": "as §1"}, "DYRK2(h)": {"biological_target": "T38, DYRK2(h) (Homo sapiens, UniProt Q92630)", "T38 construct": "purchased Eurofins Cerep SA (KinaseProfiler)", "method": "as §1"}, "ATR/ATRIP(h)": {"biological_target": "T39, ATR/ATRIP(h) (Homo sapiens, UniProt Q13535)", "T39 construct": "purchased Eurofins Cerep SA (KinaseProfiler)", "method": "as §1"}, "STK16(h)": {"biological_target": "T40, STK16(h) (Homo sapiens, UniProt O75716)", "T40 construct": "purchased Eurofins Cerep SA (KinaseProfiler)", "method": "as §1"}, "NEK7(h)": {"biological_target": "T41, NEK7(h) (Homo sapiens, UniProt Q8TDX7)", "T41 construct": "purchased Eurofins Cerep SA (KinaseProfiler)", "method": "as §1"}},
  "data": [
    {"smiles": "CN(C)Cc1cccc(Nc2ncc(Cl)c(-c3csc(C(=O)NN4CCOCC4)c3)n2)c1", "note": "[SKLB-D18, 4-(5-chloro-2-((3-((dimethylamino)methyl)phenyl)amino)pyrimidin-4-yl)-N-morpholinothiophene-2-carboxamide]", "values": [
      {"measurement": "inhibition at 1 µM", "setting": "CaMKIIδ(h)", "value": 47, "unit": "%"},
      {"measurement": "inhibition at 1 µM", "setting": "FGFR3(h)", "value": 55, "unit": "%"},
      {"measurement": "inhibition at 1 µM", "setting": "TYK2(h)", "value": 83, "unit": "%"},
      {"measurement": "inhibition at 1 µM", "setting": "PKCβII(h)", "value": 28, "unit": "%"},
      {"measurement": "inhibition at 1 µM", "setting": "Aurora-A(h)", "value": 51, "unit": "%"},
      {"measurement": "inhibition at 1 µM", "setting": "NUAK2(h)", "value": 67, "unit": "%"},
      {"measurement": "inhibition at 1 µM", "setting": "DYRK1A(h)", "value": 13, "unit": "%"},
      {"measurement": "inhibition at 1 µM", "setting": "GSK3α(h)", "value": 58, "unit": "%"},
      {"measurement": "inhibition at 1 µM", "setting": "Fer(h)", "value": 16, "unit": "%"},
      {"measurement": "inhibition at 1 µM", "setting": "ZIPK(h)", "value": 64, "unit": "%"},
      {"measurement": "inhibition at 1 µM", "setting": "DDR2(h)", "value": -2, "unit": "%"},
      {"measurement": "inhibition at 1 µM", "setting": "CaMKIIα(h)", "value": -25, "unit": "%"},
      {"measurement": "inhibition at 1 µM", "setting": "CaMKIβ(h)", "value": 1, "unit": "%"},
      {"measurement": "inhibition at 1 µM", "setting": "TLK2(h)", "value": 52, "unit": "%"},
      {"measurement": "inhibition at 1 µM", "setting": "LTK(h)", "value": 38, "unit": "%"},
      {"measurement": "inhibition at 1 µM", "setting": "MST3(h)", "value": 19, "unit": "%"},
      {"measurement": "inhibition at 1 µM", "setting": "HRI(h)", "value": 38, "unit": "%"},
      {"measurement": "inhibition at 1 µM", "setting": "Ret(h)", "value": 81, "unit": "%"},
      {"measurement": "inhibition at 1 µM", "setting": "FAK(h)", "value": 17, "unit": "%"},
      {"measurement": "inhibition at 1 µM", "setting": "PTK5(h)", "value": 35, "unit": "%"},
      {"measurement": "inhibition at 1 µM", "setting": "ALK6(h)", "value": 10, "unit": "%"},
      {"measurement": "inhibition at 1 µM", "setting": "GRK5(h)", "value": -1, "unit": "%"},
      {"measurement": "inhibition at 1 µM", "setting": "Bmx(h)", "value": 46, "unit": "%"},
      {"measurement": "inhibition at 1 µM", "setting": "PKD3(h)", "value": 55, "unit": "%"},
      {"measurement": "inhibition at 1 µM", "setting": "Tec(h) activated", "value": 8, "unit": "%"},
      {"measurement": "inhibition at 1 µM", "setting": "Axl(h)", "value": 36, "unit": "%"},
      {"measurement": "inhibition at 1 µM", "setting": "MST1(h)", "value": 45, "unit": "%"},
      {"measurement": "inhibition at 1 µM", "setting": "ALK4(h)", "value": 26, "unit": "%"},
      {"measurement": "inhibition at 1 µM", "setting": "Pyk2(h)", "value": 46, "unit": "%"},
      {"measurement": "inhibition at 1 µM", "setting": "BMPR2(h)", "value": 21, "unit": "%"},
      {"measurement": "inhibition at 1 µM", "setting": "TAO3(h)", "value": 36, "unit": "%"},
      {"measurement": "inhibition at 1 µM", "setting": "ULK1(h)", "value": 49, "unit": "%"},
      {"measurement": "inhibition at 1 µM", "setting": "MOK(h)", "value": 31, "unit": "%"},
      {"measurement": "inhibition at 1 µM", "setting": "CHK2(h)", "value": 19, "unit": "%"},
      {"measurement": "inhibition at 1 µM", "setting": "Aurora-C(h)", "value": 66, "unit": "%"},
      {"measurement": "inhibition at 1 µM", "setting": "DCAMKL3(h)", "value": 66, "unit": "%"},
      {"measurement": "inhibition at 1 µM", "setting": "PRK2(h)", "value": 64, "unit": "%"},
      {"measurement": "inhibition at 1 µM", "setting": "DYRK2(h)", "value": 41, "unit": "%"},
      {"measurement": "inhibition at 1 µM", "setting": "ATR/ATRIP(h)", "value": 13, "unit": "%"},
      {"measurement": "inhibition at 1 µM", "setting": "STK16(h)", "value": 85, "unit": "%"},
      {"measurement": "inhibition at 1 µM", "setting": "NEK7(h)", "value": -2, "unit": "%"}
    ]}
  ]
}
